Here are results for 10 molecules from ChEMBL document CHEMBL5537127, “Design and synthesis of novel hederagonic acid analogs as potent anti-inflammatory compounds capable of protecting against LPS-induced acute lung injury” (Eur J Med Chem, 2024).

Data set [1] is described as follows: Cytotoxicity against mouse RAW264.7 cells assessed as cell viability at 40 uM incubated for 24 hrs by MTT assay relative to control. The class given is toxicity, cell-based. To be noted: read-out: Activity. For orientation: Tetrazolium assays rely on reduction of a dye to a coloured formazan, in cell work by metabolically active cells.
In data set [2] the test system is RAW264.7. Description: Anti-inflammatory activity against LPS-induced mouse RAW264.7 cells assessed as inhibition of NO production at 20 uM preincubated for 2 hrs followed by LPS addition and measured after 24 hrs by Griess reagent-based microplate reader analysis relative to control. The class given is functional. Details: scale not given: the % may be the effect or the level left. Particulars: time 26 hrs.

Data set [3] has as its system RAW264.7. Kind of data set: Anti-inflammatory activity against LPS-induced mouse RAW264.7 cells assessed as inhibition of NO production at 10 uM preincubated for 2 hrs followed by LPS addition and measured after 24 hrs by Griess reagent-based microplate reader analysis relative to control. Also on record: scale not given: the % may be the effect or the level left. The class given is functional. Particulars: time 26 hrs. (The Griess reaction detects nitrite, a stable product of nitric oxide.)

The test system of data set [4] is Mus musculus. Description: Anti-inflammatory activity against LPS-stimulated BALB/c mouse acute lung injury model assessed as decrease in IkappaB phosphorylation at 2.5 mg/kg, po administered for 3 days by Western blotting analysis. The class given is functional, organism-based. Particulars: time 3.0 day.
Data set [5] deals with Mus musculus. Kind of data set: Anti-inflammatory activity against LPS-stimulated BALB/c mouse acute lung injury model assessed as decrease in IRF3 phosphorylation at 2.5 mg/kg, po administered for 3 days by Western blotting analysis. The data set is classed as functional, organism-based. Particulars: time 3.0 day.
For data set [6], the system named is RAW264.7. Kind of data set: Anti-inflammatory activity against LPS-induced mouse RAW264.7 cells assessed as decrease in IFN-beta expression preincubated for 2 hrs followed by LPS addition and measured after 12 hrs by ELISA. The data set is classed as functional, cell-based. Particulars: time 14.0 hrs. On the technique in general: ELISA stands for enzyme-linked immunosorbent assay.

The subject of data set [7] is RAW264.7. Description: Anti-inflammatory activity against LPS-induced mouse RAW264.7 cells assessed as decrease in TNF-alpha expression preincubated for 2 hrs followed by LPS addition and measured after 12 hrs by ELISA. The data set is classed as functional, cell-based. To be noted: time 14.0 hrs.
In data set [8] the test system is RAW264.7. Kind of data set: Anti-inflammatory activity against LPS-induced mouse RAW264.7 cells assessed as decrease in IRF3 phosphorylation at 1 uM by Western blotting analysis. The data set is classed as functional, cell-based.
The subject of data set [9] is RAW264.7. Kind of data set: Anti-inflammatory activity against LPS-induced mouse RAW264.7 cells assessed as inhibition of p65 nuclear translocation preincubated for 2 hrs followed by LPS addition and measured after 2 hrs by FITC/DAPI staining based laser confocal microscopy analysis. The data set is classed as functional, cell-based. To be noted: time 4.0 hrs.
Data set [10] relates to RAW264.7. Kind of data set: Anti-inflammatory activity against LPS-induced mouse RAW264.7 cells assessed as decrease in TBK1 phosphorylation at 1 uM by Western blotting analysis. The data set is classed as functional, cell-based.
Data set [11] concerns Mus musculus. Kind of data set: Anti-inflammatory activity against LPS-stimulated BALB/c mouse acute lung injury model assessed as decrease in TBK1 phosphorylation at 2.5 mg/kg, po administered for 3 days by Western blotting analysis. To be noted: time 3.0 day. The class given is functional, organism-based.
Data set [12] concerns Mus musculus. Description: Anti-inflammatory activity against LPS-stimulated BALB/c mouse acute lung injury model assessed as decrease in p65 phosphorylation at 2.5 mg/kg, po administered for 3 days by Western blotting analysis. The data set is classed as functional, organism-based. To be noted: time 3.0 day.
In data set [13] the test system is RAW264.7. Description: Anti-inflammatory activity against LPS-induced mouse RAW264.7 cells assessed as decrease in IkappaB phosphorylation at 1 uM by Western blotting analysis. The data set is classed as functional, cell-based.
Data set [14] concerns Mus musculus. Kind of data set: Anti-inflammatory activity against LPS-stimulated BALB/c mouse acute lung injury model assessed as decrease in STING expression at 2.5 mg/kg, po administered for 3 days by Western blotting analysis. The data set is classed as functional, organism-based. To be noted: time 3.0 day.
Data set [15] concerns RAW264.7. Description: Anti-inflammatory activity against LPS-induced mouse RAW264.7 cells assessed as decrease in IL-6 expression preincubated for 2 hrs followed by LPS addition and measured after 12 hrs by ELISA. To be noted: time 14.0 hrs. The class given is functional, cell-based.
Data set [16] has as its system RAW264.7. Kind of data set: Anti-inflammatory activity against LPS-induced mouse RAW264.7 cells assessed as inhibition of IRF3 nuclear translocation preincubated for 2 hrs followed by LPS addition and measured after 2 hrs by FITC/DAPI staining based laser confocal microscopy analysis. The data set is classed as functional, cell-based. To be noted: time 4.0 hrs.
Data set [17] concerns RAW264.7. Description: Anti-inflammatory activity against LPS-induced mouse RAW264.7 cells assessed as decrease in p65 phosphorylation at 1 uM by Western blotting analysis. The data set is classed as functional, cell-based.
In data set [18] the test system is RAW264.7. Description: Anti-inflammatory activity against LPS-induced mouse RAW264.7 cells assessed as decrease in STING protein level at 1 uM by Western blotting analysis. The data set is classed as functional, cell-based.

Active and inactive are the calls of the source. No cut-off for these calls is given here.

Take `CC1(C)CC[C@]2(C(=O)OCc3ccccc3)CC[C@]3(C)C(=CC[C@@H]4[C@@]5(C)C/C(=C/c6ccc(Br)cc6)C(=O)[C@@](C)(CO)[C@@H]5CC[C@]43C)[C@@H]2C1`: in [1], the viability at 24 h, 40 µM was 92.9%. The Activity in the data set on RAW264.7 [2] is recorded as 10.62%; with RAW264.7 [3], 6.09%.

In the case of `CC1(C)CC[C@]2(C(=O)OCc3ccccc3)CC[C@]3(C)C(=CC[C@@H]4[C@@]5(C)CCC(=O)[C@@](C)(COC(=O)CCn6cccc6)[C@@H]5CC[C@]43C)[C@@H]2C1`, the viability at 24 h, 40 µM in data set [1] worked out at 96.9%. The Activity in the data set on RAW264.7 [2] is 12.08%; in the data set on RAW264.7 [3] it was 7.3%.

Turning to `CC1(C)CC[C@]2(C(=O)OCc3ccccc3)CC[C@]3(C)C(=CC[C@@H]4[C@@]5(C)CCC(=O)[C@@](C)(COC(=O)CC#N)[C@@H]5CC[C@]43C)[C@@H]2C1`, the viability at 24 h, 40 µM in data set [1] was 93.1%. Besides, the values for the Activity in the data set with RAW264.7 [2] and in the data set with RAW264.7 [3] were 57.99% and 40.79%, respectively.

In the case of `CC1(C)CC[C@]2(C(=O)OCc3ccccc3)CC[C@]3(C)C(=CC[C@@H]4[C@@]5(C)CCC(=O)[C@@](C)(COC(=O)CNC(=O)CCCC[C@@H]6CCSS6)[C@@H]5CC[C@]43C)[C@@H]2C1`, the viability at 24 h, 40 µM in data set [1] stood at 114%. Besides, the Activity in the data set with RAW264.7 [2] came to 46.99%; in the data set with RAW264.7 [3], 28.81%.

As for `O=C(Nc1ccc(I)cc1)c1ccc([N+](=O)[O-])o1`, the outcome with Mus musculus [4], in the data set on Mus musculus [5], with RAW264.7 [6], in the data set with RAW264.7 [7], in the data set on RAW264.7 [8] and in the data set with RAW264.7 [9] was Active. The outcome with RAW264.7 [10], in the data set on Mus musculus [11], in the data set on Mus musculus [12], in the data set with RAW264.7 [13], in the data set on Mus musculus [14] and with RAW264.7 [15] was Active. The outcome in the data set on RAW264.7 [16], with RAW264.7 [17] and in the data set on RAW264.7 [18] was Active.

As to `CC1(C)CC[C@]2(C(=O)OCc3ccccc3)CC[C@]3(C)C(=CC[C@@H]4[C@@]5(C)CCC(=O)[C@@](C)(COC(=O)CCCC[C@@H]6CCSS6)[C@@H]5CC[C@]43C)[C@@H]2C1`, the viability at 24 h, 40 µM in data set [1] is 119%. The Activity with RAW264.7 [2] was 56.28%; in the data set with RAW264.7 [3], 29.81%.

Regarding `CC1(C)CC[C@]2(C(=O)OCc3ccccc3)CC[C@]3(C)C(=CC[C@@H]4[C@@]5(C)CCC(=O)[C@@](C)(COC(=O)CCc6c[nH]c7ccccc67)[C@@H]5CC[C@]43C)[C@@H]2C1`, the viability at 24 h, 40 µM in [1] is 107%. The Activity in the data set with RAW264.7 [2] was determined as 0.43%; in the data set on RAW264.7 [3], 0.17%.

Consider `CC1(C)CC[C@]2(C(=O)OCc3ccccc3)CC[C@]3(C)C(=CC[C@@H]4[C@@]5(C)C/C(=C/c6cccc([N+](=O)[O-])c6)C(=O)[C@@](C)(CO)[C@@H]5CC[C@]43C)[C@@H]2C1`, for which the viability at 24 h, 40 µM in data set [1] amounted to 109%. Moreover, the Activity in the data set on RAW264.7 [2] worked out at 9.38%; in the data set with RAW264.7 [3], 1.09%.

For `CC1(C)CC[C@]2(C(=O)OCc3ccccc3)CC[C@]3(C)C(=CC[C@@H]4[C@@]5(C)C/C(=C/c6cccc(Br)c6)C(=O)[C@@](C)(CO)[C@@H]5CC[C@]43C)[C@@H]2C1`, the viability at 24 h, 40 µM in [1] stood at 94%. In addition, the figures for the Activity with RAW264.7 [2] and in the data set on RAW264.7 [3] were 3.82% and 3.77%, respectively.

For the molecule `CC1(C)CC[C@]2(C(=O)OCc3ccccc3)CC[C@]3(C)C(=CC[C@@H]4[C@@]5(C)CCC(=O)[C@@](C)(CO)[C@@H]5CC[C@]43C)[C@@H]2C1`, the viability at 24 h, 40 µM in [1] was 106%. The Activity was found to be 13.6% in the data set on RAW264.7 [2] and 13.3% in the data set on RAW264.7 [3].
